The values below come from US5344846A, “Compositions and methods for inhibiting deoxyhypusine synthase and the growth of cells” (The United States of America as represented by the …, priority 1992, dated 1994).

“Also recorded” adds a separate entry of the source. Like-named read-outs stand apart in the source and are kept apart here.

Assay [1] addresses T1, deoxyhypusine synthase from rat testis (Rattus norvegicus, UniProt Q6AY53).
T1 construct: as catalyzed by deoxyhypusine synthase from rat testis; from tissue; host or cells: rat testis
T1 sequence (Q6AY53 1-369): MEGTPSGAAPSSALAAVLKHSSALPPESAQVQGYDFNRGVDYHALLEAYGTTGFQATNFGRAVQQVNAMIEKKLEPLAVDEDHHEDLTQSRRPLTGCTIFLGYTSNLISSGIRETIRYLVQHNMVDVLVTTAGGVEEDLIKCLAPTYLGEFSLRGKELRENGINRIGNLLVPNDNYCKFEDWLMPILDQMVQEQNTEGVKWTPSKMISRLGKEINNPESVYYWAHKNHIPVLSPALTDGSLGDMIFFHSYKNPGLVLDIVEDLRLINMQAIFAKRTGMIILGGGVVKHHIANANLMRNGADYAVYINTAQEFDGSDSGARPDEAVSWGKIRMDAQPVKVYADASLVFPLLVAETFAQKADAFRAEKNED
The assay can be described thus: Inhibition of deoxyhypusine synthase ([3H]deoxyhypusine formation from [3H]spermidine), IC50/Ki. In kind it is biochemical. Conditions: for relative inhibitory potency (in words): comparison with parent amine, bisguanylated counterpart or another inhibitor; for Ki: competitive vs spermidine. As for the experimental part:
The enzyme assay was performed as previously described (see Wolff et al. (1990) J. Biol. Chem. 265:4793-4799; and Park et al. (1991) J. Biol. Chem. 266:7988-7994). A typical assay mixture included 0.2M glycine, 1 mM dithiothreitol, 0.5 mM NAD^+, 2.4 micromolar (μM) [1,8-^3 H] spermidine, 1 μM ec-eIF-5A(Lys), 25 micrograms (μg) bovine serum albumin, and 3-15 units of enzyme in a total volume of 20 microliters (μl). Incubations were carried out at pH 9.3 and 37° C. for 1 hour. […] Percent inhibition was plotted versus log inhibitor concentration in order to obtain graphic estimates of IC50 values, i.e., the concentrations inhibiting [^3 H]deoxyhypusine production by 50%. The IC50 values reported in the tables were calculated by fitting the data points to equation 1 where x=% inhibition and I is the inhibitor concentration. [formula] The nature of the inhibition was determined by plotting reciprocal velocities of [^3 H]deoxyhypusine production against reciprocals of [^3 H]spermidine concentrations at a constant fixed level of ec-eIF-5A(Lys) (1 μM) and at set inhibitor concentrations. […] Estimates of Ki values were made by fitting the data to equation 2; wherein v is the velocity of the reaction, V is the maximum velocity, S is the substrate concentration, Km is Michaeli's constant, Ki is the inhibition constant, and I is the inhibitor concentration. [formula] All fits were performed by means of an interactive curve-fitting program, MLAB, developed and modified at the National Institutes of Health to run on an IBM personal computer.

Assay [2] deals with T2, deoxyhypusine synthase (Rattus norvegicus, UniProt Q6AY53).
T2 construct: full-length homotetramer; substrate was human eIF-5A precursor expressed in E. coli
T2 sequence (Q6AY53 1-369): T1 sequence (Q6AY53 1-369)
Conditions: earlier publications, cited from earlier work.

Setting [3] is: pH 9.3, 37° C., 1 hour, 2.4 μM [3H]spermidine.

Take `NCCCN` [Compound 2, 1,3-diaminopropane]: the “inhibition of deoxyhypusine synthase (in words)” value (from here on “inhibition … (in words)”) in assay [1] (pH 9.3, 37° C., 1 hour, 2.4 μM [3H]spermidine, listed as 1,3-diaminopropane) is “inhibit”; in assay [1] (pH 9.3, 37° C., 1 hour, 2.4 μM [3H]spermidine, listed as compound 2), “exerts product inhibition; also recorded: inhibit the enzyme”. Further, in assay [1] (varied [3H]spermidine, ec-eIF-5A(Lys) fixed at 1 μM), the “type of inhibition (kinetics)” value is given as “competitive”. On to `NCCCCN` [Compound 3, putrescine], for which the “inhibition … (in words)” value in assay [1] (pH 9.3) was “inhibit the enzyme”. Consider `NCCCCCN` [Compound 4, cadaverine], for which the “inhibition … (in words)” value in assay [1] (setting [3]) is reported as “does not”. The same measure, in the same setting: the result for `NCCCCCCN` [Compound 5, 1,6-diaminohexane] reads “displays inhibition”; that for `NCCCCCCCN` [Compound 6, 1,7-diaminoheptane], “strong inhibition”.

For `NCCCCCCCCN` [Compound 7, 1,8-diaminooctane], in assay [1] (setting [3]), the “inhibition … (in words)” value was “strong inhibition”. Consider `NCCCNCCCN` [Compound 9, caldine], for which the “inhibition … (in words)” value in assay [1] (pH 9.3) was “some degree of inhibition”. Besides, the “substrate or cofactor function for deoxyhypusine synthase” value (“substrate or cofactor function” below) in assay [2] (listed as caldine) is given as “no detectable substrate property”; in assay [2] (listed as compound 9), “fails to serve as a substrate”.

For the compound `NCCCNCCCCNCCCN` [Compound 12, spermine], in assay [1] (pH 9.3), the “inhibition … (in words)” value is “failure”. `CCCCCCCCN` [Compound 13]: in assay [1] (setting [3]), the “inhibition … (in words)” value is on record as “does not appear to interact to any significant extent”. For `c1ccc(CNCCCCCCCCNCc2ccccc2)cc1` [Compound 25, N,N'-bis-benzyl-1,8-diaminooctane], in assay [1] (setting [3]), the “inhibition … (in words)” value was “loss in binding”. The same measure, in the same setting: the value for `CN(CCCN)CCCN` [Compound 30, N^4 -methylcaldine] was “devoid of inhibitory activity; also recorded: do not interact with the active site of the enzyme”. The same measure, in the same setting: the value for `NCCCN1CCC(CN)CC1` [Compound 31, 1-(3-Aminopropyl)-4-aminomethylpiperidine] was “failure to inhibit the enzyme”; that for `NCCCN[C@H]1CC[C@@H](N)CC1` [Compound 32, N-(3-aminopropyl)-1,4-diaminocyclohexane] was “failure to inhibit the enzyme”; that for `NCCCN[C@H]1CC[C@H](N)CC1` [Compound 33, N-(3-aminopropyl)-1,4-diaminocyclohexane] was “failure to inhibit the enzyme”. For `CC(C)(CCCN)NCCCN` [Compound 34, 5,5-dimethylspermidine], the “inhibition … (in words)” value in assay [1] (setting [3]) is “abolished inhibition; also recorded: failure to inhibit the enzyme”. In the case of `CC(N)CCNCCCCN` (stereo not drawn) [Compound 35, 1-Methyl spermidine], in assay [1] (setting [3]), the “inhibition … (in words)” value is listed as “Some degree of inhibition”. With `N=C(N)NCCCCCCNC(=N)N` [Compound 41, N^1,N^6-bisguanyl-1,6-diaminohexane], the “relative inhibitory potency (in words)” value in assay [1] was “inhibition not widely different from its parent amine”. Also, the “inhibition … (in words)” value in assay [1] (setting [3]) is reported as “acted as inhibitors of deoxyhypusine synthase”. The term Ki denotes a measure of affinity in units of concentration, obtained from inhibition or displacement. Read a high Ki as weaker binding. Take `N=C(N)NCCCCCCCNC(=N)N` [Compound 42, N^1,N^7-bisguanyl-1,7-diaminoheptane]: in assay [1], the “relative inhibitory potency (in words)” value is given as “inhibition not widely different from its parent amine” and the affinity corresponds to a Ki of 1200 nM. The “inhibition … (in words)” value in assay [1] (setting [3]) is listed as “acted as inhibitors of deoxyhypusine synthase”. `N=C(N)NCCCCCCCCNC(=N)N` [Compound 43, N^1,N^8-bisguanyl-1,8-diaminooctane]: the “relative inhibitory potency (in words)” value in assay [1] is on record as “somewhat stronger an inhibitor than guazatine (compound 40), showed no better inhibition than the parent diamine, 1,8-diaminooctane (compound 7); also recorded: inhibition not widely different from its parent amine”. Further, the “inhibition … (in words)” value in assay [1] (setting [3]) was “acted as inhibitors of deoxyhypusine synthase”. Regarding `N=C(N)NCCCNC(=N)N` [Compound 44, N^1,N^3-bisguanyl-1,3-diaminopropane], the “inhibition … (in words)” value in assay [1] (setting [3]) is reported as “without inhibitory property; also recorded: no inhibition was detected”.

As for `N=C(N)NCCCNCCCNC(=N)N` [Compound 45, N^1,N^7 -bisguanyl caldine], the “relative inhibitory potency (in words)” value in assay [1] is listed as “inhibition not widely different from its parent amine”. In addition, in assay [1] (setting [3]), the “inhibition … (in words)” value is given as “somewhat reduced inhibition”. Moreover, in assay [1] (vs parent caldine (45 vs 9)), the “increase in IC50 by bisguanylation” value is 5 fold. As for `N=C(N)NCCCN` [Compound 46, N^1-guanyl-1,3-diaminopropane], the “inhibition … (in words)” value in assay [1] (setting [3]) was “without inhibitory property; also recorded: no inhibition was detected”. Still for that read-out and setting: the value for `N=C(N)NCCCCN` [Compound 47, agmatine] was “moderate degree of inhibition; also recorded: mild degree of inhibition”. On to `N=C(N)NCCCNCCCN` [Compound 48, N^1 -guanylcaldine], for which the “relative inhibitory potency (in words)” value in assay [1] was “far exceeding the parent amines, as well as their bisguanylated counterparts, in inhibitory potency; also recorded: uniformly more efficient inhibition”. In addition, the “inhibition … (in words)” value in assay [1] (setting [3]) is “excellent inhibitors”. For the compound `N=C(N)NCCCCCCCN` [Compound 49, N^1-guanyl-1,7-diaminoheptane], in assay [1], the “relative inhibitory potency (in words)” value was “far exceeding the parent amines, as well as their bisguanylated counterparts, in inhibitory potency; also recorded: strongest inhibition of the compounds tested; also recorded: uniformly more efficient inhibition” and the Ki worked out at 9.7 nM. Also, the “inhibition … (in words)” value in assay [1] (setting [3]) is listed as “excellent inhibitors”. For the same compound, the “Ki, fold less than the apparent Km for spermidine” value in assay [1] (vs apparent Km for spermidine (4.5±0.7 μM)) was “about 450 fold”. For `N=C(N)NCCCCCCCCN` [Compound 50, N^1-guanyl-1,8-diaminooctane], the “relative inhibitory potency (in words)” value in assay [1] is recorded as “far exceeding the parent amines, as well as their bisguanylated counterparts, in inhibitory potency; also recorded: uniformly more efficient inhibition”. Further, the “inhibition … (in words)” value in assay [1] (setting [3]) is listed as “excellent inhibitors”. Consider `NC(=O)C1=CN([C@@H]2O[C@H](COP(=O)(O)OP(=O)(O)OC[C@H]3O[C@@H](n4cnc5c(N)ncnc54)[C@H](O)[C@@H]3O)[C@@H](O)[C@H]2O)C=CC1` [NADH], for which the “substrate or cofactor function” value in assay [2] is reported as “negligible”. On to `NC(=O)c1ccc[n+]([C@@H]2O[C@H](COP(=O)([O-])OP(=O)(O)OC[C@H]3O[C@@H](n4cnc5c(N)ncnc54)[C@H](OP(=O)(O)O)[C@@H]3O)[C@@H](O)[C@H]2O)c1` [NADP^+], for which, in assay [2], the “substrate or cofactor function” value is on record as “negligible”. In the case of `NCCCC[C@H](N)C(=O)O` [free lysine, lysine], the “substrate or cofactor function” value in assay [2] is given as “Neither free lysine nor synthetic 9- or 16-member peptides modeled on the amino acid sequence encompassing the lysine residue in eIF-5A precursors that undergoes modification to hypusine, function as substrates”. For “altered eIF-5A precursor protein, in which Lys^50 is replaced by Arg: altered eIF-5A precursor protein, in which Lys^50 is replaced by Arg”, in assay [2], the “substrate or cofactor function” value is reported as “is not”.
